# Laboratory results from patent US5081119A, “Use of 5-alkylpyridazine derivatives as drugs active on the cholinergic system” (priority 1989, dated 1992).
# Columns and labels:
# [1] = system: cholinergic receptors; experiment: Ligand properties for the cholinergic receptors (subsequent studies); assay type: binding
# [2] = French patents 2 141 697, 2 510 997, 2 510 998; cited from earlier work
# [3] = molecular target: T1, M1-type muscarinic cholinergic receptor (Rattus norvegicus, UniProt P08482); experiment: Affinity for M1-type muscarinic cholinergic receptor: displacement of [3H]-pirenzepine on rat hippocampus homogenate; assay type: binding; details: for IC50: displacement of [3H]-PZ (1 nM), rat hippocampus homogenate, 2 h at 4° C., pH 7.40; for r = M2/M1 (ratio of the M2 and M1 IC50 values, selectivity towards the M1 receptor): ratio of IC50 3H-NMS (guinea-pig ileum) to IC50 3H-PZ (rat hippocampus)
# T1 construct: on a homogenate of rat hippocampus; from tissue; host or cells: rat hippocampus homogenate
# T1 sequence (P08482 1-460): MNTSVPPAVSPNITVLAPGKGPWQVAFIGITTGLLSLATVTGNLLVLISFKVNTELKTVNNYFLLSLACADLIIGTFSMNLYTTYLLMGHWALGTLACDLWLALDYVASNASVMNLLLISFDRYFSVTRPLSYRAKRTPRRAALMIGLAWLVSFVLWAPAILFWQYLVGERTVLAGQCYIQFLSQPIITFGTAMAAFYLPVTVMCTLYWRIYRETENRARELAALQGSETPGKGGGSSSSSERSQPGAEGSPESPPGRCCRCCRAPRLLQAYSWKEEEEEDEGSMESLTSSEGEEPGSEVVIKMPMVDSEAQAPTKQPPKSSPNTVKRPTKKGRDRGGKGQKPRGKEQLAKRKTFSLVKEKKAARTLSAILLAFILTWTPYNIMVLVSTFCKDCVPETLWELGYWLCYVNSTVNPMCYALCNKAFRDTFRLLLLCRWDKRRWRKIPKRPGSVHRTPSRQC
# From the text: (§1) In vitro, we studied the interaction of the products (II) with tritiated pirenzepine and tritiated N-methylscopolamine bound with a high affinity to membranes of rat hippocampus and membranes of smooth muscle of guinea-pig ileum, respectively.
# A) Test for affinity for the M1 -type muscarinic cholinergic receptor
# The interaction of molecules with the M1 -type muscarinic receptors was studied by in vitro measurement, on a homogenate of rat hippocampus, of the displacement of tritiated pirenzepine ([^3 H]-PZ) from its specific binding sites. Aliquots (100 μl) of a 5% (w/v) homogenate of rat hippocampus in an Na2 HPO4 buffer (50 mM, pH 7.40) are incubated for 2 h at 4° C. in the presence of [^3 H]-PZ (76 Ci/mmol; final concentration: 1 nM) and increasing concentrations of test products. The final volume is 2 ml. The reaction is stopped by centrifugation for 10 min at 50,000×g. After decantation and washing of the residues, the bound radioactivity is counted by liquid scintillation. The non-specific binding is determined in the presence of 10 μmol/l of atropine sulfate. The 50% inhibitory concentration (IC50) is determined graphically (Ref.: Watson J. D., Roeskoe W. R. and Yamamura H. I., Life Sci., 31, 2019-2029, 1982).
# (§2) Table 3 indicates the affinities of the products of the invention for the M1 and M2 receptors. The results are expressed as 50 percent inhibitory concentrations (IC50), i.e. the concentration (in μM) which causes a 50% inhibition of the binding of the tritiated ligand to the membrane receptors. The IC50 for displacement of ^3 H-pirenzepine represents the affinity for the M1 receptor; the IC50 for displacement of ^3 H-NMS represents the affinity for the M2 receptor.
# (§3) The Table also indicates, in the 3rd column, the ratio r of the M2 and M1 IC50 values, which expresses the selectivity of the products towards the M1 receptor.
# [4] = molecular target: T2, M2-type muscarinic cholinergic receptor (Cavia porcellus, UniProt H0VRN8); experiment: Affinity for M2-type muscarinic cholinergic receptor: displacement of [3H]-N-methylscopolamine on guinea-pig ileum smooth muscle homogenate; assay type: binding; details: displacement of [3H]-NMS (0.3 nM), 20 min at 30° C., pH 7.5
# T2 construct: on a homogenate of smooth muscle of guinea-pig ileum; from tissue; host or cells: guinea-pig ileum smooth muscle homogenate
# T2 sequence (H0VRN8 1-466): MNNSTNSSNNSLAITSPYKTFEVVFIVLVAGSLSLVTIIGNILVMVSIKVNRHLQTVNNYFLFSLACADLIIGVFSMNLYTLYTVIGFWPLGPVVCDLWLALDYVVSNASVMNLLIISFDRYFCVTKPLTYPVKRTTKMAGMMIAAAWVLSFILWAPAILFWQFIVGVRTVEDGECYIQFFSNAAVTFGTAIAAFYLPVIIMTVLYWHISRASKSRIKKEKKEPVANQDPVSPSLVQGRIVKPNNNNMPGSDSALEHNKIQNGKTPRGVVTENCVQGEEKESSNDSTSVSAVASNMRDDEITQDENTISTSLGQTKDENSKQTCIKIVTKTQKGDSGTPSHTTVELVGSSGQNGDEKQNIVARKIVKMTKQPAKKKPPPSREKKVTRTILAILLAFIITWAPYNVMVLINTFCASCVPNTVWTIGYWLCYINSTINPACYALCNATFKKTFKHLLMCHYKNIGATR
# From the text: as §1
# B) Test for affinity for the M2 -type muscarinic cholinergic receptor.
# The interaction with the M2 -type muscarinic receptors was studied by in vitro measurement, on a homogenate of smooth muscle of guinea-pig ileum, of the displacement of tritiated N-methylscopolamine ([^3 H]-NMS) from its specific binding sites. Aliquots (50 μl) of a 0.625% (w/v) homogenate of smooth guinea-pig muscle in HEPES buffer (20 mM) containing NaCl (100 mM) and MgCl2 (10 mM) (final pH: 7.5) are incubated for 20 min at 30° C. in the presence of [^3 H]-NMS (85 Ci/mmol; final concentration: 0.3 nM) and increasing concentrations of test products. The final volume is 1 ml. The reaction is stopped by centrifugation for 5 min at 15,000×g. The non-specific binding is determined in the presence of 10 μmol-l of atropine sulfate (Ref.: Hammer R., Berrie C. P., Birdsall N. I. M., Burgen A. S. V. and Hulme E. C., Nature, 283, 90-92, 1980; Hulme E. C., Birdsall N. I. M., Burgen A. S. V. and Mettha P., Mol. Pharmacol., 14, 737-750, 1978).
# as §2, §3
# [5] = system: rotational behavior induced by intrastriatal pirenzepine (M1 central muscarinic cholinergic receptors); experiment: Antagonism of rotational behavior induced by intrastriatal injection of pirenzepine in mice; assay type: in vivo, mice (female, Swiss, CD 1 printed as DC 1, Charles River); details: 3 mg/kg p.o., 4 hours before pirenzepine 1 μg into right striatum; 10 animals per dose; Student t test, *p < 0.05, **p < 0.01
# Protocol: The compounds of formula (II) were also subjected to an in vivo study. Pirenzepine (PZ) is a specific antagonist of ligands for the M1 central muscarinic cholinergic receptors. The intrastriatal injection of PZ into mice induces rotational behavior. The antagonism of this behavior by the test products was studied. The products according to the invention are administered orally after solubilization in distilled water or suspension in a 5% solution of gum arabic. The control animals receive an injection of the pure solvent under the same conditions. The animals used are female mice (Swiss, DC 1, Charles River, France) with a body weight of between 25 and 30 grams. Pirenzepine is dissolved in a phosphate buffer; the pH of the solution is 6. The test products or their solvents are administered orally in a volume of 0.4 ml per 20 g of body weight, 4 hours before a direct injection of pirenzepine at a dose of 1 μg of product in 1 μl of solvent into the right striatum of the mouse, according to the method described by P. Worms et al. in Psychopharmacology 1987, 93, 489-493. The number of contralateral rotations (rotations in the opposite direction to the side injected) was counted for three 2-minute periods after the injection of pirenzepine: minutes 2 to 4, 8 to 10 and 13 to 15. Each treatment involves 10 animals per dose. For each treatment, the total number of rotations and the percentage antagonism compared with the control group are calculated. The results obtained with the products of formula (II) administered orally at a dose of 3 mg/kg of body weight are collated in Table 4.
Compound,properties as a ligand for the cholinergic receptors (in words) [1],antidepressant properties [2],IC50 [3] [µM],"r = M2/M1 (ratio of the M2 and M1 IC50 values, selectivity towards the M1 receptor) [3]",IC50 [4] [µM],% inhibition of rotations [5] [%]
"Cc1cc(NCCN2CCOCC2)nnc1-c1ccccc1 [(I), 3-(2-morpholinoethylamino)-5-methyl-6-phenylpyridazine]",possesses valuable properties as a ligand for the cholinergic receptors,antidepressant properties of moderate intensity,–,–,–,–
"Cc1cc(NCCN2CCOCC2)nnc1-c1ccccc1.O=C(O)C(=O)O.O=C(O)C(=O)O [CM 30316, 3-(2-Morpholinoethylamino)-5-methyl-6-phenylpyridazine dioxalate]",–,–,0.55,182,100,-20
CCN(CC)CCNc1cc(C)c(-c2ccccc2)nn1 [SR 96150 A],–,–,0.06,47,2.8,-49
CCc1cc(NCCN2CCOCC2)nnc1-c1ccccc1 [SR 96169 A],–,–,3.7,8,30,-46
CCc1cc(NCCN(CC)CC)nnc1-c1ccccc1 [SR 96180 A],–,–,0.07,14,1,-38
CCCc1cc(NCCN2CCOCC2)nnc1-c1ccccc1 [SR 96186 A],–,–,0.6,30,18,-41
CCCc1cc(NCCN(CC)CC)nnc1-c1ccccc1 [SR 96187 A],–,–,0.4,9,3.5,-37
